In publication PMC2799458, “Diastereomers of the Brominated Flame Retardant 1,2-Dibromo-4-(1,2 dibromoethyl)cyclohexane Induce Androgen Receptor Activation in the HepG2 Hepatocellular Carcinoma Cell Line and the LNCaP Prostate Cancer Cell Line” (Environmental Health Perspectives, 2009):
pEC50, pIC50: −log10 of the molar value. Read-outs that look alike come from different tables or passages of the source. Marks after values point to notes of the source that are not given here.

Assays:
AR-LBD = molecular target: T1, AR-LBD (Rattus norvegicus, UniProt P15207); test: PolarScreen AR competition assay (polarization fluorometry); format: binding
T1 construct: purchased PanVera, Madison, WI, USA
T1 sequence (P15207 651-882 limits assumed): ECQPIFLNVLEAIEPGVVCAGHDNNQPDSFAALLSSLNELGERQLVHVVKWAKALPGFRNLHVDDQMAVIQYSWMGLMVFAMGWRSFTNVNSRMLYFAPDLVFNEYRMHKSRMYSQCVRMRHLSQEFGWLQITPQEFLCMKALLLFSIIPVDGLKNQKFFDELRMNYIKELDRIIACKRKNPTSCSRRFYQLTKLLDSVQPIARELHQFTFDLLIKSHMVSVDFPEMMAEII
Procedure: The final concentration of AR LBD was 50 nM. […] All analyses were performed in triplicate.

hAR = molecular target: T2, hAR (Homo sapiens, UniProt P10275); test: AR activation, slp-ARE-Luc reporter in HepG2 cells transfected with pCMVhAR; format: cell-based
T2 construct: expressed in transfected cells; host or cells: HepG2
T2 sequence (P10275 1-920): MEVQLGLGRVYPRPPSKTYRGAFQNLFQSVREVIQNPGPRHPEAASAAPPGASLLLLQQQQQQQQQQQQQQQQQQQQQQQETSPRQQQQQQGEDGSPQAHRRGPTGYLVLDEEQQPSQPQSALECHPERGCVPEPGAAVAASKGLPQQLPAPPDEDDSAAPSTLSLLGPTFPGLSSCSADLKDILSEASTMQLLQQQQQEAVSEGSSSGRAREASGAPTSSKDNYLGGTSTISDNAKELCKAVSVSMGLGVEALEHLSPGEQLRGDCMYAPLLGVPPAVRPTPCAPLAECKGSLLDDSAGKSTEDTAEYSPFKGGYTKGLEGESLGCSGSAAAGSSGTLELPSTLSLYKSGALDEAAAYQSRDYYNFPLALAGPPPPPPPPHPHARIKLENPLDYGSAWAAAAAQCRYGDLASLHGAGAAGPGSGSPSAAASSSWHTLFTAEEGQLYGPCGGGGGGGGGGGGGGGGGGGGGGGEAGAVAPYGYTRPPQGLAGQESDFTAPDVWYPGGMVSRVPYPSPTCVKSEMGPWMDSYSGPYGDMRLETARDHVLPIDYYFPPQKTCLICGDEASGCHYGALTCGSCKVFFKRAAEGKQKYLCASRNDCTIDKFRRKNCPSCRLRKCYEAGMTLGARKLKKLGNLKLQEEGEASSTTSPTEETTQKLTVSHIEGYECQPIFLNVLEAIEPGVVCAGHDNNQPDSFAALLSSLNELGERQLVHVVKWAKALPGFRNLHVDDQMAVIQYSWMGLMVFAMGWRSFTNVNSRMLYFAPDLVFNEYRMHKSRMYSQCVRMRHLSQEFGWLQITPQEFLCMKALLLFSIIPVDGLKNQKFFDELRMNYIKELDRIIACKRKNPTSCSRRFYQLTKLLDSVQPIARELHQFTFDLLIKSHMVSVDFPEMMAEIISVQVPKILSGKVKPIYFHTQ

[1] = tested on: human androgen receptor (hAR); parameters: method as in Araki et al. 2005; conditions: at high concentrations; ref Araki et al. 2005; cited from earlier work
PR [2] = tested on: PR; parameters: method as in Lenasi and Breskvar (2004); conditions: natural ligand; ref Lenasi and Breskvar (2004); cited from earlier work
PR [3] = tested on: PR; parameters: method as in Viswanath et al. (2008); conditions: natural ligand; ref Viswanath et al. (2008); cited from earlier work
AR [4] = conditions: DHT set to 100%, cited from earlier work
ER [5] = conditions: 17β-estradiol set to 100%, cited from earlier work
AR [6] = conditions: read-out: EC50 AR; natural ligand; ref Xu et al. (2005); cited from earlier work
AR [7] = conditions: read-out: IC50 AR; natural ligand; ref Cabeza et al. (2004); cited from earlier work
HepG2 cells = conditions: 21 hr after addition, ref Simon and Mueller 2006; cited from earlier work
AhR [8] = test: Relative activation factor for AhR (Table 4); format: cell-based, human; conditions: TCDD as reference ligand set to 100%
Description: Table 4 RBA of ligands for human receptors. | column: AhR / RAF

AhR [9] = test: Relative binding affinity for AhR (Table 4); parameters: species or system human; conditions: TCDD as reference ligand set to 100%
Description: Table 4 RBA of ligands for human receptors. | column: AhR / RBA

AhR [10] = tested on: AhR; parameters: method as in Bonefeld-Jørgensen et al. (2007); conditions: ref Bonefeld-Jørgensen et al. (2007); cited from earlier work
AR [11] = tested on: AR; parameters: method as in Viswanath et al. (2008); conditions: DHT set to 100%; ref Viswanath et al. (2008); cited from earlier work
ER [12] = conditions: 17β-estradiol set to 100%, cited from earlier work; remark: listed apart in the source
AhR [13] = tested on: AhR; parameters: method as in Westerink et al. (2008); conditions: ref Westerink et al. (2008); cited from earlier work
[14] = tested on: L5178Y tk^+/tk^− mouse lymphoma-cell; parameters: method as in McGregor et al. 1991; conditions: ref McGregor et al. 1991; cited from earlier work
ER [15] = tested on: ER; parameters: method as in Pillon et al. (2005); conditions: natural ligand; ref Pillon et al. (2005); cited from earlier work
ER [16] = tested on: ER; parameters: method as in Blair et al. (2000); conditions: natural ligand; ref Blair et al. (2000); cited from earlier work
AhR [17] = conditions: TCDD set to 100%, cited from earlier work
[18] = ref Bonefeld-Jørgensen et al. (2007)

Molecule `BrC[C@@H](Br)[C@H]1CC[C@@H](Br)[C@H](Br)C1` (mixture of isomers) [TBECH-β, rac-(1R,2R)-1,2-dibromo-(4S)-4-[(1S)1,2-dibromoethyl]cyclohexane] has a pIC50 (AR-LBD) of 6.18 and a pEC50 (hAR) of 6.53.

For `O=C1c2ccccc2-c2cccc3cccc1c23` [benzoanthrone], the “agonism to hAR” value [1] is given as “weak agonists”.

For `ClC1=C(Cl)C2(Cl)C3C4C=CC(C4)C3C1(Cl)C2(Cl)Cl` (centres unmarked) [Aldrin], the “AR RBA” value (AR [4]; ref Fang et al. (2003)) is given as 0.007 ^f % and the “ER RBA” value (ER [5]; ref Sonneveld et al. (2005)) is given as 0.0029 ^h %.

In the case of `C[C@]12CCC(=O)C[C@@H]1CC[C@@H]1[C@@H]2CC[C@]2(C)[C@@H](O)CC[C@@H]12` [DHT, dihydrotestosterone], the pEC50 (AR [6]) is listed as […], the pIC50 (AR [7]) is listed as […] and the “reduction of hormone by metabolism” value (HepG2 cells) is listed as 46%.

In the case of `Clc1cc2c(cc1Cl)Oc1cc(Cl)c(Cl)cc1O2` [TCDD, 2,3,7,8-tetrachlorodibenzo-p-dioxin, reference compound], the “AhR RAF” value (AhR [8]) is listed as 100%, the “AhR RBA” value (AhR [9]) is listed as 100% and the pIC50 (AhR [10]) is listed as 10.19. For the same molecule, the “AR RBA” value (AR [4]; ref Viswanath et al. (2008)) was 0.0013 ^g %, the “ER RBA” value (ER [5]; ref Viswanath et al. (2008)) was < 0.0002 ^g % and the “AR RAF” value (AR [11]) was < 0.0013 ^g %. For the same molecule, the “ER RAF” value (ER [12]; ref Viswanath et al. (2008)) was 0.00012 ^g % and the pEC50 (AhR [13]) was 10.31.

In the case of `C=CC1(C)OC(=O)N(c2cc(Cl)cc(Cl)c2)C1=O` (centres unmarked) [Vinclozolin], the “AR RBA” value (AR [4]; ref Fang et al. (2003)) is given as 0.0023 ^f %, the “ER RBA” value (ER [5]; ref Blair et al. (2000)) is given as < 0.0009 ^a % and the “AR RAF” value (AR [11]) is given as 0.0126 ^g %.

In the case of `Clc1ccc(C(c2ccccc2Cl)C(Cl)(Cl)Cl)cc1` (centres unmarked) [o,p′-DDT], the “AR RBA” value (AR [4]; ref Fang et al. (2003)) is given as 0.0149 ^f %, the “ER RBA” value (ER [5]; ref Blair et al. (2000)) is given as 0.0014 ^a % and the “AR RAF” value (AR [11]) is given as 0.0126 ^g %. For the same molecule, the “ER RAF” value (ER [12]; ref Legler et al. (1999)) was 0.0009 ^e %.

In the case of `ClC1=C(Cl)[C@]2(Cl)[C@@H]3[C@@H]4C[C@@H]([C@H]5O[C@@H]45)[C@@H]3[C@@]1(Cl)C2(Cl)Cl` [Dieldrin], the “ER RBA” value (ER [5]; ref Sonneveld et al. (2005)) is given as 0.0019 ^h % and the “ER RAF” value (ER [12]; ref Pillon et al. (2005)) is given as 0.00001 ^b %.

For `CC(C)(C)c1ccc2c(c1)C(=O)c1ccccc1C2=O` [2-tert-butylanthraquinone], the “agonism to hAR” value [1] is listed as “weak agonists”.

For `C[C@]12CC[C@H]3[C@@H](CCC4=CC(=O)CC[C@@]43C)[C@@H]1CC[C@@H]2O` [Testosterone, testosterone], the “reduction of hormone by metabolism” value (HepG2 cells) is listed as 82%.

In the case of `BrCC(Br)C1CCC(Br)C(Br)C1` (centres unmarked) [TBECH, 1,2-dibromo-4-(1,2 dibromoethyl)cyclohexane], the mutagenicity [14] is listed as “mutagenic”.

In the case of `CC(C)(c1ccc(O)cc1)c1ccc(O)cc1` [Bisphenol A], the “AR RBA” value (AR [4]; ref Scippo et al. (2004)) is listed as 0.0018 ^c %, the “ER RBA” value (ER [5]; ref Blair et al. (2000)) is listed as 0.0077 ^a % and the “ER RAF” value (ER [12]; [18]) is listed as 0.0183 ^d %.

In the case of Nonylphenol, the “AR RBA” value (AR [4]; ref Scippo et al. (2004)) is given as 0.0523 ^c %, the “ER RBA” value (ER [5]; ref Blair et al. (2000)) is given as 0.037 ^a % and the “ER RAF” value (ER [12]; ref Pillon et al. (2005)) is given as 0.00016 ^b %. The “AhR RAF” value (AhR [17]; [18]) was 0.0003 ^d %.

In the case of `Clc1ccc(-c2ccc(Cl)c(Cl)c2)cc1Cl` [PCB 77, 3,3′,4,4′-tetrachlorobiphenyl], the “ER RBA” value (ER [5]; ref Blair et al. (2000)) is given as < 0.0003 ^a % and the “AhR RAF” value (AhR [17]; ref Zeiger et al. (2001)) is given as 0.025 ^i %.
